Data: US20110200992A1, “Biological Compositions, Articles and Methods for Monitoring Sterilization Processes” (priority 2008, published 2011)

Tests used:
spores = experiment: Fluorescence over a range of dye concentrations with decreasing concentrations of spores (Example 5); type: cell-based, Gb. stearothermophilus; conditions: for Fluorescence intensity (normalized): ex 485/em 530 nm, 50° C.
Method: Dilutions were prepared using Sterile Water For Irrigation (Baxter, Deerfield, Ill.) and tested at a final population ranging between of 1×10^6 and 0 spores. The spore dilutions (100 microlitres) were combined with 200 microlitres of medium, consisting of Acridine Orange and nutrients as described in Example 1, with Acridine Orange concentrations at 1:5000 (0.0066 mM), 1:1000 (0.033 mM) and 1:500 (0.066 mM), each of the resulting mixtures was added to a well of a plate. The plate was subsequently placed in a preheated plate reader (BioTek Synergy 4 plate reader, Winooski, Vt.) at 50° C. and incubated for 60 min, during which fluorescence intensity readings were taken using excitation at 485 nm and emission at 530 nm. A summary of the normalized data is listed below in Table 5a-5c.

[1] = tested on: Gb. stearothermophilus spores on a polypropylene carrier; experiment: Change in fluorescence of biological indicators after lethal and sub-lethal sterilization cycles (Example 4); type: cell-based; conditions: 485/530 nm, 1×E5 spores, 1:5000 dye, incubated 50° C.
Method: Eighty biological indicators (BIs) were prepared by coating a suspension of Gb. stearothermophilus spores at a concentration of 1×E5 on a polypropylene carrier. Following drying at 37° C. for 20 min, the BIs were exposed to commonly used sterilization conditions as described below in Tables 4a, 4b, and 4c. Following sterilization the BIs were activated with a medium, exposed to the same sterilization conditions as the spores and containing of a 1:5000 dilution of Acridine Orange along with glucose, fructose, and potassium chloride in water (1 mg/ml, 1 mg/ml, and 3.3 mgs/ml, respectively), 0.02 M alanine, 0.01 M valine, 0.002 M isoleucine, 0.2 mg/ml inosine, and a small amount of Bromo Cresol Purple. The combination of the medium with the spores on the carrier, subjected to lethal and sub-lethal sterilization processes shown in Tables 4a-4c, was incubated at 50° C. for 60 min, and fluorescence intensity readings were taken at 30 and 60 min using excitation at 485 nm and emission at 530 nm.

[2] = 1 min in 132° C. (270° F.) Gravity Cycle, AMSCO EAGLE Model 2013 Steam Sterilizer
[3] = 1 min in 132° C. (270° F.) Vacuum Assisted Cycle, Joslyn BIER Vessel
[4] = 3 min in 132° C. (270° F.) Gravity Cycle, AMSCO EAGLE Model 2013 Steam Sterilizer
[5] = 3 min in 132° C. (270° F.) Vacuum Assisted Cycle, Joslyn BIER Vessel
[6] = 5 min in 121° C. (250° F.) Vacuum Assisted Cycle, Joslyn BIER Vessel
[7] = 15 min in 121° C. (250° F.) Vacuum Assisted Cycle, Joslyn BIER Vessel

CN(C)c1ccc2cc3ccc(N(C)C)cc3nc2c1 [Acridine Orange]
Dependence of signal on dye concentration (spores; 0.0066, 0.033, 0.066 mM): the higher the signal | Detection of spores (lowest spore population shown) (spores; all Acridine Orange concentrations (0.0066, 0.033, 0.066 mM)): Detection of E3 spores was shown | Fluorescence intensity (normalized) (spores; dye 0.0066 mM with nutrients, 0 spores, 0:00:00): 0 | Fluorescence intensity (normalized) (spores; dye 0.0066 mM with nutrients, 0 spores, 0:15:00): 711 | Fluorescence intensity (normalized) (spores; dye 0.0066 mM with nutrients, 0 spores, 0:30:00): 886.5 | Fluorescence intensity (normalized) (spores; dye 0.0066 mM with nutrients, 0 spores, 0:45:00): 1027 | Fluorescence intensity (normalized) (spores; dye 0.0066 mM with nutrients, 0 spores, 1:00:00): 1147.5 | Fluorescence intensity (normalized) (spores; dye 0.0066 mM with nutrients, E3 spores, 0:00:00): 0 | Fluorescence intensity (normalized) (spores; dye 0.0066 mM with nutrients, E3 spores, 0:15:00): 2033 | Fluorescence intensity (normalized) (spores; dye 0.0066 mM with nutrients, E3 spores, 0:30:00): 2271.5 | Fluorescence intensity (normalized) (spores; dye 0.0066 mM with nutrients, E3 spores, 0:45:00): 2396 | Fluorescence intensity (normalized) (spores; dye 0.0066 mM with nutrients, E3 spores, 1:00:00): 2484.5 | Fluorescence intensity (normalized) (spores; dye 0.0066 mM with nutrients, E4 spores, 0:00:00): 0 | Fluorescence intensity (normalized) (spores; dye 0.0066 mM with nutrients, E4 spores, 0:15:00): 3754.5 | Fluorescence intensity (normalized) (spores; dye 0.0066 mM with nutrients, E4 spores, 0:30:00): 4088 | Fluorescence intensity (normalized) (spores; dye 0.0066 mM with nutrients, E4 spores, 0:45:00): 4174 | Fluorescence intensity (normalized) (spores; dye 0.0066 mM with nutrients, E4 spores, 1:00:00): 4268 | Fluorescence intensity (normalized) (spores; dye 0.0066 mM with nutrients, E5 spores, 0:00:00): 0 | Fluorescence intensity (normalized) (spores; dye 0.0066 mM with nutrients, E5 spores, 0:15:00): 5224 | Fluorescence intensity (normalized) (spores; dye 0.0066 mM with nutrients, E5 spores, 0:30:00): 5364 | Fluorescence intensity (normalized) (spores; dye 0.0066 mM with nutrients, E5 spores, 0:45:00): 5373 | Fluorescence intensity (normalized) (spores; dye 0.0066 mM with nutrients, E5 spores, 1:00:00): 5406 | Fluorescence intensity (normalized) (spores; dye 0.0066 mM with nutrients, E6 spores, 0:00:00): 0 | Fluorescence intensity (normalized) (spores; dye 0.0066 mM with nutrients, E6 spores, 0:15:00): 12024.5 | Fluorescence intensity (normalized) (spores; dye 0.0066 mM with nutrients, E6 spores, 0:30:00): 15320 | Fluorescence intensity (normalized) (spores; dye 0.0066 mM with nutrients, E6 spores, 0:45:00): 16514.5 | Fluorescence intensity (normalized) (spores; dye 0.0066 mM with nutrients, E6 spores, 1:00:00): 17130.5 | Fluorescence intensity (normalized) (spores; dye 0.033 mM with nutrients, 0 spores, 0:00:00): 0 | Fluorescence intensity (normalized) (spores; dye 0.033 mM with nutrients, 0 spores, 0:15:00): 740 | Fluorescence intensity (normalized) (spores; dye 0.033 mM with nutrients, 0 spores, 0:30:00): 958 | Fluorescence intensity (normalized) (spores; dye 0.033 mM with nutrients, 0 spores, 0:45:00): 1143.5 | Fluorescence intensity (normalized) (spores; dye 0.033 mM with nutrients, 0 spores, 1:00:00): 1280 | Fluorescence intensity (normalized) (spores; dye 0.033 mM with nutrients, E3 spores, 0:00:00): 0 | Fluorescence intensity (normalized) (spores; dye 0.033 mM with nutrients, E3 spores, 0:15:00): 2022.5 | Fluorescence intensity (normalized) (spores; dye 0.033 mM with nutrients, E3 spores, 0:30:00): 2281 | Fluorescence intensity (normalized) (spores; dye 0.033 mM with nutrients, E3 spores, 0:45:00): 2437 | Fluorescence intensity (normalized) (spores; dye 0.033 mM with nutrients, E3 spores, 1:00:00): 2558.5 | Fluorescence intensity (normalized) (spores; dye 0.033 mM with nutrients, E4 spores, 0:00:00): 0 | Fluorescence intensity (normalized) (spores; dye 0.033 mM with nutrients, E4 spores, 0:15:00): 3467 | Fluorescence intensity (normalized) (spores; dye 0.033 mM with nutrients, E4 spores, 0:30:00): 3640.5 | Fluorescence intensity (normalized) (spores; dye 0.033 mM with nutrients, E4 spores, 0:45:00): 3724 | Fluorescence intensity (normalized) (spores; dye 0.033 mM with nutrients, E4 spores, 1:00:00): 3810.5 | Fluorescence intensity (normalized) (spores; dye 0.033 mM with nutrients, E5 spores, 0:00:00): 0 | Fluorescence intensity (normalized) (spores; dye 0.033 mM with nutrients, E5 spores, 0:15:00): 5012 | Fluorescence intensity (normalized) (spores; dye 0.033 mM with nutrients, E5 spores, 0:30:00): 5029 | Fluorescence intensity (normalized) (spores; dye 0.033 mM with nutrients, E5 spores, 0:45:00): 4999 | Fluorescence intensity (normalized) (spores; dye 0.033 mM with nutrients, E5 spores, 1:00:00): 5068 | Fluorescence intensity (normalized) (spores; dye 0.033 mM with nutrients, E6 spores, 0:00:00): 0 | Fluorescence intensity (normalized) (spores; dye 0.033 mM with nutrients, E6 spores, 0:15:00): 14427.5 | Fluorescence intensity (normalized) (spores; dye 0.033 mM with nutrients, E6 spores, 0:30:00): 19073.5 | Fluorescence intensity (normalized) (spores; dye 0.033 mM with nutrients, E6 spores, 0:45:00): 20802.5 | Fluorescence intensity (normalized) (spores; dye 0.033 mM with nutrients, E6 spores, 1:00:00): 21688 | Fluorescence intensity (normalized) (spores; dye 0.066 mM with nutrients, 0 spores, 0:00:00): 0.0 | Fluorescence intensity (normalized) (spores; dye 0.066 mM with nutrients, 0 spores, 0:15:00): 815.5 | Fluorescence intensity (normalized) (spores; dye 0.066 mM with nutrients, 0 spores, 0:30:00): 1026.0 | Fluorescence intensity (normalized) (spores; dye 0.066 mM with nutrients, 0 spores, 0:45:00): 1184.5 | Fluorescence intensity (normalized) (spores; dye 0.066 mM with nutrients, 0 spores, 1:00:00): 1287.5 | Fluorescence intensity (normalized) (spores; dye 0.066 mM with nutrients, E3 spores, 0:00:00): 0.0 | Fluorescence intensity (normalized) (spores; dye 0.066 mM with nutrients, E3 spores, 0:15:00): 3420.0 | Fluorescence intensity (normalized) (spores; dye 0.066 mM with nutrients, E3 spores, 0:30:00): 3716.0 | Fluorescence intensity (normalized) (spores; dye 0.066 mM with nutrients, E3 spores, 0:45:00): 3902.5 | Fluorescence intensity (normalized) (spores; dye 0.066 mM with nutrients, E3 spores, 1:00:00): 4000.5 | Fluorescence intensity (normalized) (spores; dye 0.066 mM with nutrients, E4 spores, 0:00:00): 0.0 | Fluorescence intensity (normalized) (spores; dye 0.066 mM with nutrients, E4 spores, 0:15:00): 3261.5 | Fluorescence intensity (normalized) (spores; dye 0.066 mM with nutrients, E4 spores, 0:30:00): 3464.0 | Fluorescence intensity (normalized) (spores; dye 0.066 mM with nutrients, E4 spores, 0:45:00): 3586.5 | Fluorescence intensity (normalized) (spores; dye 0.066 mM with nutrients, E4 spores, 1:00:00): 3626.5 | Fluorescence intensity (normalized) (spores; dye 0.066 mM with nutrients, E5 spores, 0:00:00): 0.0 | Fluorescence intensity (normalized) (spores; dye 0.066 mM with nutrients, E5 spores, 0:15:00): 3422.5 | Fluorescence intensity (normalized) (spores; dye 0.066 mM with nutrients, E5 spores, 0:30:00): 3533.0 | Fluorescence intensity (normalized) (spores; dye 0.066 mM with nutrients, E5 spores, 0:45:00): 3606.0 | Fluorescence intensity (normalized) (spores; dye 0.066 mM with nutrients, E5 spores, 1:00:00): 3616.0 | Fluorescence intensity (normalized) (spores; dye 0.066 mM with nutrients, E6 spores, 0:00:00): 0.0 | Fluorescence intensity (normalized) (spores; dye 0.066 mM with nutrients, E6 spores, 0:15:00): 13727.5 | Fluorescence intensity (normalized) (spores; dye 0.066 mM with nutrients, E6 spores, 0:30:00): 15331.5 | Fluorescence intensity (normalized) (spores; dye 0.066 mM with nutrients, E6 spores, 0:45:00): 15529.5 | Fluorescence intensity (normalized) (spores; dye 0.066 mM with nutrients, E6 spores, 1:00:00): 15629.0 | Average Change in Fluorescence at 30 min [1, 2]: 1462 | Average Change in Fluorescence at 60 min [1, 2]: 1808 | Average Change in Fluorescence at 30 min [1, 3]: 2607 | Average Change in Fluorescence at 60 min [1, 3]: 2762 | Average Change in Fluorescence at 30 min [1, 4]: 201 | Average Change in Fluorescence at 60 min [1, 4]: 22 | Average Change in Fluorescence at 30 min [1, 5]: 279 | Average Change in Fluorescence at 60 min [1, 5]: 386 | Average Change in Fluorescence at 30 min [1, 6]: 2774 | Average Change in Fluorescence at 60 min [1, 6]: 3347 | Average Change in Fluorescence at 30 min [1, 7]: 383 | Average Change in Fluorescence at 60 min [1, 7]: 353
